According to patent publication US9540352B2, “Substituted 1,7-naphthyridines as dopamine D1 ligands” (PFIZER INC., priority 2014, dated 2017):

These compounds were tested against Human D1 Receptor (Homo sapiens (Human), UniProt P21728) (assay: Human D1 receptor binding assay ([3H]-SCH23390 competition)). Conditions: over-expressing LTK human cell lines; 0.5 nM [3H]-SCH23390; 30 min at 37 °C; footnote a: geometric mean of ≥5 determinations; footnote b: single determination; read-out: Human D1 Receptor Binding, Ki (nM); Geometric mean of 2-4 determinations (unless otherwise indicated).
Experimental: The affinity of the compounds described herein was determined by competition binding assays similar to those described in Ryman-Rasmussen et al., “Differential activation of adenylate cyclase and receptor internalization by novel dopamine D1 receptor agonists”, Molecular Pharmacology 68(4):1039-1048 (2005).
D1 binding assays were performed using over-expressing LTK human cell lines. […] These ligand and tissue concentrations were used in time course studies to determine linearity and equilibrium conditions for binding. Binding was at equilibrium with the specified amount of tissue in 30 minutes at 37° C. […] The pellet was resuspended in assay buffer [50 mM Tris (pH 7.4@ RT) containing 4 mM MgSO4 and 0.5 mM EDTA]. […] Non-specific binding was determined by radioligand binding in the presence of a saturating concentration of (+)-Butaclamol (10 μM), a D1 antagonist. After a 30 minute incubation period at 37° C., assay samples were rapidly filtered through Unifilter-96 GF/B PEI-coated filter plates and rinsed with 50 mM Tris buffer (pH 7.4 at 4° C.). […] The IC50 value (concentration at which 50% inhibition of specific binding occurs) was calculated by linear regression of the concentration-response data in Microsoft Excel. Ki values were calculated according to the Cheng-Prusoff equation: […]

Chain of Human D1 Receptor (P21728 whole entry): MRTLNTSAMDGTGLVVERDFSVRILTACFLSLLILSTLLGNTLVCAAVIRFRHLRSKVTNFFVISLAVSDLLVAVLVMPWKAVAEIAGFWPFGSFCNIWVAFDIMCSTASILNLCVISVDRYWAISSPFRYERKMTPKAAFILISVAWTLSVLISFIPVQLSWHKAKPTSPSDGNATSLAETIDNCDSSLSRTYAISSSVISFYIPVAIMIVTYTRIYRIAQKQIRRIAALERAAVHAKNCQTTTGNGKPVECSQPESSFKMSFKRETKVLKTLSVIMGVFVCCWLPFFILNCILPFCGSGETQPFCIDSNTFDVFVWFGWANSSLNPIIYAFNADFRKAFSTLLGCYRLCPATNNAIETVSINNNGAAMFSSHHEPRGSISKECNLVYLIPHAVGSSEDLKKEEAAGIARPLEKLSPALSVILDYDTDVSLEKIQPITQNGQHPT

Compound	Ki
Cc1cc(Oc2nccc3cccc(C#N)c23)ccc1-c1c(C)n[nH]c(=O)c1C [Example 14, 1-[4-(3,5-dimethyl-6-oxo-1,6-dihydropyridazin-4-yl)-3-methylphenoxy]isoquinoline-8-carbonitrile]	261 nM
Cc1cc(Oc2nccc3cccnc23)ccc1-c1c(C)n[nH]c(=O)c1C (single isomer, unassigned) [Example 3, (−)-4,6-Dimethyl-5-[2-methyl-4-(1,7-naphthyridin-8-yloxy)phenyl]pyridazin-3(2H)-one]	102 nM
Cc1cc(Oc2nccc3cccnc23)ccc1-c1c(C)n[nH]c(=O)c1C (single isomer, unassigned) [Example 2, (+)-4,6-Dimethyl-5-[2-methyl-4-(1,7-naphthyridin-8-yloxy)phenyl]pyridazin-3(2H)-one]	115 nM
COc1ccc2ccnc(Oc3ccc(-c4c(C)n[nH]c(=O)c4C)c(C)c3)c2c1 [Example 12, 5-{4-[(7-methoxyisoquinolin-1-yl)oxy]-2-methylphenyl}-4,6-dimethylpyridazin-3(2H)-one]	186 nM
Cc1cc(Oc2nccc3ccccc23)ccc1-c1c(C)c(=O)[nH]c(=O)n1C [Example 5, 6-[4-(Isoquinolin-1-yloxy)-2-methylphenyl]-1,5-dimethylpyrimidine-2,4(1H,3H)-dione]	1.9 nM
Cc1cc(Oc2nccc3ccc(C#N)cc23)ccc1-c1c(C)n[nH]c(=O)c1C [Example 13, 1-[4-(3,5-dimethyl-6-oxo-1,6-dihydropyridazin-4-yl)-3-methylphenoxy]isoquinoline-7-carbonitrile]	334 nM
Cc1c(-c2ccc(Oc3nccc4cccnc34)cc2)n(C)c(=O)[nH]c1=O [Example 7, 1,5-dimethyl-6-[4-(1,7-naphthyridin-8-yloxy)phenyl]pyrimidine-2,4(1H,3H)-dione]	119 nM
Cc1cc(Oc2nccc3cccnc23)ccc1-c1c(C)ncnc1C [Example 6, 8-[4-(4,6-dimethylpyrimidin-5-yl)-3-methylphenoxy]-1,7-naphthyridine]	105 nM
Cc1cc(Oc2nccc3ccccc23)ccc1-c1c(C)n[nH]c(=O)c1C [Example 11, 5-[4-(isoquinolin-1-yloxy)-2-methylphenyl]-4,6-dimethylpyridazin-3(2H)-one]	7.8 nM
Cc1cc(Oc2nccc3nccnc23)ccc1-c1c(C)n[nH]c(=O)c1C [Example 9, 4,6-dimethyl-5-[2-methyl-4-(pyrido[3,4-b]pyrazin-5-yloxy)phenyl]pyridazin-3(2H)-one]	306 nM
Cc1cc(Oc2nccc3ccncc23)ccc1-c1c(C)n[nH]c(=O)c1C [Example 8, 4,6-dimethyl-5-[2-methyl-4-(2,7-naphthyridin-1-yloxy)phenyl]pyridazin-3(2H)-one]	141 nM
Cc1n[nH]c(=O)c(C)c1-c1ccc(Oc2nccc3cccnc23)cc1 [Example 4, 4,6-Dimethyl-5-[4-(1,7-naphthyridin-8-yloxy)phenyl]pyridazin-3(2H)-one]	205 nM
Cc1cc(Oc2nccc3cccnc23)ccc1-c1c(C)c(=O)[nH]c(=O)n1C [Example 1, 1,5-Dimethyl-6-[2-methyl-4-(1,7-naphthyridin-8-yloxy)phenyl]pyrimidine-2,4(1H,3H)-dione]	28.5 nM
Cc1cc(Oc2nccc3ncccc23)ccc1-c1c(C)n[nH]c(=O)c1C [Example 10, 4,6-dimethyl-5-[2-methyl-4-(1,6-naphthyridin-5-yloxy)phenyl]pyridazin-3(2H)-one]	124 nM
